Laboratory results reported in publication PMC4498294, “Tetrahydroisoquinolines affect the whole-cell phenotype of Mycobacterium tuberculosis by inhibiting the ATP-dependent MurE ligase” (Journal of Antimicrobial Chemotherapy, 2015).
Converted amounts (≈) assume the structure as drawn. “And” between values parts separate entries of the source, which are not always exact repeats. Identical values can stand only once. Like-named read-outs stand apart in the source and are kept apart here.

What was measured:
M. bovis BCG Pasteur = assay: microbe, parasite or virus in culture; type: cell-based; conditions: for MIC: Mycobacterium tuberculosis variant bovis BCG, BCG; for MIC M. bovis BCG: SPOTi, 2 weeks at 37°C
[1] = tested on: murine macrophage cell line RAW264.7; assay: Eukaryotic cell toxicity assay, RAW264.7; type: cell-based; conditions: Mus musculus
[2] = target: MurE (Rv2158c) protein of M. tuberculosis H37Rv (Mycobacterium tuberculosis, UniProt P9WJL3); assay: Mtb-MurE HPLC inhibition assay; type: biochemical; conditions: HPLC assay, 37°C 30 min
M. tuberculosis H37Rv = assay: SPOTi growth inhibition assay, M. tuberculosis H37Rv; type: cell-based; conditions: Mycobacterium tuberculosis, H37RV
P. putida = assay: SPOTi assay, P. putida; type: cell-based, Pseudomonas putida; conditions: LB, 37°C overnight
E. coli K12 = assay: SPOTi assay, E. coli; type: cell-based, Escherichia coli; conditions: LB, 37°C overnight
R. equi RHA1 = assay: SPOTi assay, R. equi RHA1; type: cell-based, Rhodococcus equi; conditions: LB, 30°C 48 h
[3] = 336 h, read-out: MIC M. bovis BCG, SPOTi, 2 weeks at 37°C
[4] = read-out: MIC M. bovis BCG, SPOTi, value in square brackets
[5] = RAW264.7, value in square brackets, read-out: GIC50 RAW264.7
[6] = murine macrophage cell line RAW264.7, read-out: GIC50 RAW264.7
[7] = 336 h, SPOTi, 2 weeks at 37°C, read-out: MIC M. tuberculosis H37Rv
[8] = SPOTi, value in square brackets, read-out: MIC M. tuberculosis H37Rv
[9] = RAW264.7, read-out: GIC50 RAW264.7

MurE (Rv2158c) protein of M. tuberculosis H37Rv, sequence (P9WJL3 whole entry, looked up): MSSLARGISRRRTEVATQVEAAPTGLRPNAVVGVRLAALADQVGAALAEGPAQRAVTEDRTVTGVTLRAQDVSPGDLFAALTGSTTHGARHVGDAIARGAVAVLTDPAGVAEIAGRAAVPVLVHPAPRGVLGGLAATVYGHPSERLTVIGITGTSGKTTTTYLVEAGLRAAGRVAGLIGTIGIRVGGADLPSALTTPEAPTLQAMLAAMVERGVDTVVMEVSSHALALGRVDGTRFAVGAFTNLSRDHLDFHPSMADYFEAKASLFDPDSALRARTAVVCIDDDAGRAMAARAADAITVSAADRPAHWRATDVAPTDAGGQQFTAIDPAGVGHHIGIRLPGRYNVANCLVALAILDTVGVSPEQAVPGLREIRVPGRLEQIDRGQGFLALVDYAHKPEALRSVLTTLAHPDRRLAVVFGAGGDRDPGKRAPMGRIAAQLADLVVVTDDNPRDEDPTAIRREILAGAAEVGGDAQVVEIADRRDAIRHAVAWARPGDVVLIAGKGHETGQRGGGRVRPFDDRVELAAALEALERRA

Row | Compound | MIC (M. bovis BCG Pasteur; [3]) [µg/mL] | MIC (M. bovis BCG Pasteur; [4]) [µM] | IC50 [1, 5] [µM] | IC50 [1, 6] [µg/mL] | other results
1 | COc1cc2c(c(O)c1OC)C[C@H]1c3c(cc4c(c3-2)OCO4)CCN1C [(S)-Leucoxine (1), (S)-Leucoxine] | 25 | 70 | 352 | 125 | IC50 [2]: 820 µM; MIC (M. tuberculosis H37Rv; [7]): 30 µg/mL; MIC (M. tuberculosis H37Rv; [8]): 84 µM
2 | Oc1cc2c(cc1O)C(Cc1ccccc1)NCC2 (stereo not shown) [Compound 3] | > 100 | > 392 | 313 | 81 | 
3 | Oc1cc2c(cc1O)C(c1ccccn1)NCC2 (stereo not shown) [Compound 4] | > 100 | > 413 | 248 | 60 | 
4 | COc1ccc(C2NCCc3cc(O)c(O)cc32)cc1 (stereo not shown) [Compound 5] | > 100 | > 369 | 335 | 91 | 
5 | Oc1ccc(C2NCCc3cc(O)c(O)cc32)cc1 (stereo not shown) [Compound 6] | > 100 | > 389 | 358 | 92 | 
6 | Oc1cccc(C2NCCc3cc(O)c(O)cc32)c1 (stereo not shown) [Compound 7] | > 100 | > 389 | 342 | 88 | 
7 | Oc1cc2c(cc1O)C(c1ccccc1O)NCC2 (stereo not shown) [Compound 8] | > 100 | > 389 | 338 | 87 | 
8 | Oc1cc2c(cc1O)C(c1cccs1)NCC2 (stereo not shown) [Compound 9] | > 100 | > 404 |  |  | IC50 [1, 9]: 56 µg/mL and 226 µM
9 | Oc1cc2c(cc1O)[C@@H](O)CN[C@H]2Cc1ccccc1 [Compound 10] | > 60 |  |  |  | MIC (M. bovis BCG Pasteur; 336 h, read-out: MIC M. bovis BCG, SPOTi, value in square brackets): 271 µM; MIC M. bovis BCG (M. bovis BCG Pasteur): 100 µg/mL (≈ 369 µM); IC50 [1, 9]: > 250 µg/mL and > 566 µM
10 | O=C(O)[C@@H]1Cc2cc(O)c(O)cc2[C@@H](Cc2ccccc2)N1 [Compound 11] | > 100 | > 334 | 291 | 87 | 
11 | Oc1cc2c(cc1O)C(c1cncc3ccccc13)NCC2 (stereo not shown) [Compound 12] | > 100 | > 342 | > 855 | > 250 | 
12 | CC(C)=CCC[C@H](C)CC1NCCc2cc(O)c(O)cc21 (stereo partly shown) [Compound 13] | > 60 | 346 | > 864 | > 250 | MIC M. bovis BCG (M. bovis BCG Pasteur): 100 µg/mL (≈ 346 µM)
13 | OC[C@@H](O)[C@@H]1NCCc2cc(O)c(O)cc21 [Compound 14] | > 100 | > 444 | 377 | 85 | 
14 | Nc1ccc2c(c1)CCNC2Cc1ccccc1 (stereo not shown) [Compound 15] | > 100 | > 420 | 789 | 188 | 
15 | Oc1ccc2c(c1)CCNC2Cc1ccccc1 (stereo not shown) [Compound 16] | > 60 | 418 | 683 | 195 | MIC M. bovis BCG (M. bovis BCG Pasteur): 100 µg/mL (≈ 418 µM)
16 | Oc1cccc(CC2NCCc3cc(O)c(O)cc32)c1 (stereo not shown) [Compound 17] | > 100 | > 369 | 236 | 64 | 
17 | COc1ccc(CC2NCCc3cc(O)c(O)cc32)cc1OC (stereo not shown) [Compound 18] | > 100 | > 317 | 178 | 56 | 
18 | COc1cc(CC2NCCc3cc(O)c(O)cc32)ccc1O (stereo not shown) [Compound 19] | > 100 | > 332 | 166 | 50 | 

Row | Compound | MIC (M. bovis BCG Pasteur; [3]) [µg/mL] | MIC (M. bovis BCG Pasteur; [4]) [µM] | IC50 [1, 5] [µM] | IC50 [1, 6] [µg/mL] | other results
19 | Oc1cc2c(cc1O)C(Cc1ccccc1Br)NCC2 (stereo not shown) [Compound 21] | > 100 | > 299 | 141 | 47 | 
20 | CC1(C(=O)O)NCCc2cc(O)c(O)cc21 (stereo not shown) [Compound 22] | > 100 | > 448 | 797 | 178 | 
21 | Oc1cc2c(cc1O)C(C1CCCCC1)NCC2 (stereo not shown) [Compound 23] | > 100 | > 404 | 182 | 45 | MIC (M. tuberculosis H37Rv; [7]): > 100 µg/mL; MIC (M. tuberculosis H37Rv; [8]): > 404 µM
22 | C[C@@H]1NC(Cc2ccc3c(c2)OCO3)c2ccc(O)cc2[C@H]1O (stereo partly shown) [Compound 25] | > 100 | > 319 | 578 | 181 | 
23 | O=C(O)[C@@H]1Cc2cc(O)c(O)cc2C(Cc2ccc3c(c2)OCO3)N1 (stereo partly shown) [Compound 26] | > 100 | > 291 | 533 | 183 | 
24 | Oc1ccc2c(c1)CCNC2Cc1ccc2c(c1)OCO2 (stereo not shown) [Compound 27] | 100 | 353 | 529 | 150 | IC50 [2]: > 1000 µM
25 | Oc1cc2c(cc1O)C(c1cccc3c1OCO3)NCC2 (stereo not shown) [Compound 29] | > 100 | > 351 | 263 | 75 | IC50 [2]: 471 µM
26 | Oc1cc2c(cc1O)[C@@H](O)CNC2c1cccc2c1OCO2 (stereo partly shown) [Compound 30] | > 100 | > 332 | 295 | 89 | 
27 | CN1C[C@H](O)c2cc(O)c(O)cc2[C@@H]1c1cccc2c1OCO2 [Compound 31] | > 100 | > 317 | 434 | 137 | 
28 | CN1C[C@H](O)c2cc(O)c(O)cc2[C@H]1c1cccc2c1OCO2 [Compound 32] | > 100 | > 317 | 574 | 181 | 
29 | Oc1cc2c(c(O)c1O)C(c1cccc3c1OCO3)NCC2 (stereo not shown) [Compound 33] | > 100 | > 332 | 18 | 5.5 | IC50 [2]: 148 µM
30 | Oc1ccc2c(c1)CCNC2c1cccc2c1OCO2 (stereo not shown) [Compound 34] | > 100 | > 371 | 672 | 181 | IC50 [2]: > 1000 µM
31 | COc1ccc(Br)c2c1C(Cc1ccc3c(c1)OCO3)NCC2 (stereo not shown) [Compound 37] | 30 | 53 | 80 | 30 | MIC M. bovis BCG (M. bovis BCG Pasteur): 20 µg/mL (≈ 53.2 µM); IC50 [2]: 165 µM; MIC (M. tuberculosis H37Rv; 336 h, read-out: MIC M. tuberculosis H37Rv, SPOTi, 2 weeks at 37°C): 40 µg/mL; MIC (M. tuberculosis H37Rv; [8]): 106 µM
32 | COc1ccc(I)c2c1C(Cc1ccc3c(c1)OCO3)NCC2 (stereo not shown) [Compound 38] | 50 | 118 | 66 | 28 | IC50 [2]: < 111 µM; MIC (M. tuberculosis H37Rv; [7]): 30 µg/mL; MIC (M. tuberculosis H37Rv; [8]): 71 µM
33 | COc1cccc2c1C(Cc1ccc3c(c1)OCO3)NCC2 (stereo not shown) [Compound 40] | > 50 | > 168 | 740 | 220 | IC50 [2]: 300 µM; MIC (M. tuberculosis H37Rv; [7]): > 100 µg/mL; MIC (M. tuberculosis H37Rv; [8]): > 336 µM
34 | NC[C@H]1O[C@H](O[C@H]2[C@H](O)[C@@H](O[C@H]3O[C@H](CO)[C@@H](O)[C@H](N)[C@H]3O)[C@H](N)C[C@@H]2N)[C@H](O)[C@@H](O)[C@@H]1O [Kanamycin, reference compound] |  |  |  |  | MIC P. putida (P. putida): 10 µg/mL (≈ 20.6 µM); MIC E. coli K12 (E. coli K12): 1 µg/mL (≈ 2.06 µM); MIC R. equi RHA1 (R. equi RHA1): 1 µg/mL (≈ 2.06 µM)
35 | Oc1ccc(CC2NCCc3cc(O)c(O)cc32)cc1 (stereo not shown) [Norcoclaurine (2), Norcoclaurine] | > 100 | > 369 | 1570 | 425 | IC50 [2]: 837 µM
